Where a name gives a salt, the structure may show the parent alone.
Experiments:
[1] = Liver homogenate stability; assay type: in vitro ADME; conditions: 1 μM, 37° C., 120 mins
From the text: (§1) The breakdown of a prodrug in vivo could occur in one or more of several different compartments including for example, but not limited to blood/plasma, liver, stomach, target tissue (e.g. tumour). The preferred location for optimum formation of the parent drug will depend on the disposition in vivo of the pro-drug and parent and an understanding of the optimum concentrations of each required in the circulation to maximise exposure to the active moiety in the target tissue. The potential for pro-drug molecules to deliver the active parent drug may be assessed in vitro by measuring the breakdown of a pro-drug in the presence of relevant body fluids. For the purpose of gaining a preliminary understanding of the stability of compounds of the invention to enzymatic hydrolysis in two such bodily compartments, compound turnover has been studied following incubation in whole blood and liver homogenate from mice and humans. The data obtained from these studies provide a preliminary understanding of which of the prodrugs are better able to deliver parent compound (i.e. are more rapidly broken down to parent compound) in these compartments. Further studies could also determine stability in other compartments (e.g. in the target tumours by measuring stability in tumour lysates).
Mouse livers were obtained from 20 male mice, strain: Balb/c from stock animals. Human liver tissue was obtained from 3 individuals sourced from a UK human tissue bank. The livers were stored frozen. The livers were defrosted and then homogenised to form a homogenate of approximately 30% (w/v) in phosphate buffer, 100 mM, pH 7.4 (referred to as ‘buffer’). Homogenates were kept on ice until use.
(§2) Each incubation consisted of a volume of 1 mL. Test compound dosing solutions were then spiked into each homogenate at a final compound concentration of 1 μM. Incubations were performed in the atmosphere in a shaking water bath at 37° C.
(§3) An aliquot of incubation samples was removed into an equal volume of ice-cold acetonitrile at various time points. Samples (whole blood/homogenate+acetonitrile) were centrifuged and aliquots of the supernatant were analysed by HPLC-MS/MS.
(§4) The compound X (2,4-dihydroxy-5-isopropyl-phenyl)-[5-(4-methyl-piperazin-1-ylmethyl)-1,3-dihydro-isoindol-2-yl]-methanone) and the compounds of Examples 1 to 24 were incubated in both whole blood and liver homogenate by Quotient Bioresearch (Rushden, UK). The percentage remaining of parent compound following incubation in whole blood/liver homogenate from human and mouse are set out in the table below.

Whole blood stability = assay type: in vitro ADME; conditions: 1 μM, 37° C., 120 mins
From the text: as §1
For these studies, human whole blood was collected from 3 male healthy volunteers in lithium heparin tubes. The blood was pooled and stored at room temperature for a maximum of 2 hours prior to initiation of incubations. Mouse blood was collected from 70 male mice, strain: Balb/c into lithium heparin tubes and pooled.
as §2, §3, §4

[2] = Tolerability, four consecutive daily doses; assay type: in vivo, mouse
[3] = Mouse pharmacokinetics, oral gavage; assay type: in vivo, Balb/c mice; conditions: compared with examples 16 and 11
Description: Balb/c mice are dosed with a prodrug by oral gavage. A single administration of one of the 24 examples is given and a dose volume of 10 mL/kg is used for PO doses.
Blood samples are collected in lithium heparin coated tubes at selected time points.
Plasma is isolated by centrifugation and frozen before analysis.
Plasma samples are prepared by liquid-liquid extraction with Acetonitrile containing internal standard. Quantification is by comparison with a standard calibration line constructed with each compound and using a LC-MS/MS method specific to each compound. Animals that had been dosed one of the 24 examples were analysed for prodrug and compound X (2,4-dihydroxy-5-isopropyl-phenyl)-[5-(4-methyl-piperazin-1-ylmethyl)-1,3-dihydro-isoindol-2-yl]-methanone). Pharmacokinetics parameters are calculated using WinNonLin® non compartmental analysis software.
The plasma AUC0.25-2 hrs after PO administration of selected examples are set out in the table below. For examples 16, 17 and 11, plasma AUC0.25-2 hrs was determined following a single dose of 120 μmoles/kg or 240 μmoles/kg.

Row | SMILES | Percentage remaining Human Liver [1] [%] | Percentage remaining Mouse Liver [1] [%] | Percentage remaining Human blood (Whole blood stability) [%] | Percentage remaining Mouse blood (Whole blood stability) [%] | tolerability ([2]; four consecutive daily doses at 240 μmoles/kg) | exposure of the active pharmaceutical agent relative to the starting dose [3] | tolerability ([2]; four consecutive daily doses at 120 μmoles/kg)
1 | CC(C)c1cc(C(=O)N2Cc3ccc(CN4CCN(C)CC4)cc3C2)c(OC(=O)N(C)C)cc1OC(=O)N(C)C [Example 11, dimethyl-carbamic acid 5-dimethylcarbamoyloxy-2-isopropyl-4-[5-(4-methyl-piperazin-1-ylmethyl)-1,3-dihydro-isoindole-2-carbonyl]-phenyl ester] | 31 | 1 | 93 | 38 | well tolerated |  | 
2 | CC(C)c1cc(C(=O)N2Cc3ccc(CN4CCN(C)CC4)cc3C2)c(O)cc1OC(=O)N(C)C [Example 17, dimethyl-carbamic acid 5-hydroxy-2-isopropyl-4-[5-(4-methyl-piperazin-1-ylmethyl)-1,3-dihydro-isoindole-2-carbonyl]-phenyl ester] | 0 | 0 | 90 | 24 |  | optimal exposure of the active pharmaceutical agent relative to the starting dose | well tolerated
3 | CC(C)c1cc(C(=O)N2Cc3ccc(CN4CCN(C)CC4)cc3C2)c(O)cc1OC(=O)N1CCOCC1 [Example 21, 2-[4-(morpholin-4-ylcarbonyloxy)-2-hydroxy-5-isopropyl-benzoyl]-5-(4-methyl-piperazin-1-ylmethyl)-1,3-dihydro-isoindole] | 0 | 0 | 82 | 0 |  |  | 
4 | CC(C)c1cc(C(=O)N2Cc3ccc(CN4CCN(C)CC4)cc3C2)c(OC(=O)OC(C)(C)C)cc1OC(=O)N(C)C [Example 22, Carbonic acid tert-butyl ester 5-dimethylcarbamoyloxy-4-isopropyl-2-[5-(4-methyl-piperazin-1-ylmethyl)-1,3-dihydro-isoindole-2-carbonyl]-phenyl ester] | 6 | 0 | 18 | 0 |  |  | 
5 | CC(C)c1cc(C(=O)N2Cc3ccc(CN4CCN(C)CC4)cc3C2)c(OC(=O)OC(C)(C)C)cc1OC(=O)OC(C)(C)C [Example 23, Carbonic acid 5-tert-butoxycarbonyloxy-4-isopropyl-2-[5-(4-methyl-piperazin-1-ylmethyl)-1,3-dihydro-isoindole-2-carbonyl]-phenyl ester tert-butyl ester] | 1 | 0 | 26 | 0 |  |  | 
6 | CC(C)c1cc(C(=O)N2Cc3ccc(CN4CCN(C)CC4)cc3C2)c(OC(=O)C(C)(C)C)cc1OC(=O)C(C)(C)C [Example 24, 2,2-Dimethyl-propionic acid 5-(2,2-dimethyl-propionyloxy)-2-isopropyl-4-[5-(4-methyl-piperazin-1-ylmethyl)-1,3-dihydro-isoindole-2-carbonyl]-phenyl ester dihydrochloride] | 2 | 0 | 11 | 0 |  |  | 

Reference: patent US8383619B2, “Pharmaceutical compounds” (Astex Therapeutics Limited, priority 2008, dated 2013)
